Source: patent US20220265847A1, “METHODS AND COMPOSITIONS FOR TREATING NON-SMALL CELL LUNG CANCER” (Board of Regents, The University of Texas System, priority 2019, published 2022)

Legend:
Type in all cases: cell-based
[1] = tested on: HCC827 (EGFR mutant) cells; assay: Sensitivity of HCC827 parental cells to EGFR TKIs compared to EGFR TKI resistant (ER) variants; details: FIG. 1
[2] = tested on: HCC4006 (EGFR mutant) cells; assay: Sensitivity of HCC4006 parental cells to EGFR TKIs compared to EGFR TKI resistant (ER) variants; details: FIG. 1
Source text: While EGFR mutant NSCLC patients are initially responsive to EGFR tyrosine kinase inhibitors (TKI), resistant disease inevitably emerges. The inventors derived a panel of NSCLC cell lines with acquired resistance to EGFR TKIs. […] CD70 is typically expressed on T-cells and B-cells, but can also be expressed by some malignant cells. Expression of CD70 by tumor cells is thought to contribute to an immunosuppressive environment by affecting/attracting regulatory T cells and promoting T cell apoptosis and exhaustion.
While EGFR mutant NSCLC patients are initially responsive to EGFR tyrosine kinase inhibitors (TKI), resistant disease inevitably emerges. The inventors derived a panel of NSCLC cell lines with acquired resistance to EGFR TKIs. […] Once tumors were visualized by CT imaging, doxycycline was withdrawn from a subset of animals to mimic EGFR inhibition. […] Tumors were collected an CD70 expression was analyzed by immunohistochemistry. […] Next, the inventors evaluated CD70 expression in EGFR mutant EGFRTKI naïve NSCLC clinical specimens and EGFR mutant NSCLC specimens collected after EGFR TKI resistance.

[3] = tested on: HCC827 cells with induced expression of ZEB1; assay: EGFR TKI sensitivity of HCC827 cells after induced ZEB1 expression (EMT induction); details: HCC827 (EGFR TKI sensitive) cells with induced ZEB1 expression; FIG. 4B-D / 10B
Source text: Next, the inventors investigated the impact of EMT on CD70 expression in EGFR mutant NSCLC cell lines. The inventors induced EMT through forced expression of ZEB1 in HCC827 parental (EGFR TKI sensitive) cells. […] The inventors next evaluated whether CD70 expression was associated with a mesenchymal phenotype in NSCLC cell lines and human lung adenocarcinomas using the TCGA database.

H1975 OR16 = assay: CD70 ADC relative cell viability; details: H1975 OR16 vs H1975 parental (CD70 low); increasing concentrations; FIG. 14 and 16
Source text: (§1) FIG. 14A-C. CD70 antibody-drug conjugates (ADCs) target CD70+ EGFR TKI resistant cell in vitro.
(§2) To determine whether CD70 antibody drug conjugates (ADCs) are a valid approach for targeting EGFR TKI resistant cells, the inventors treated H1975 cells (CD70 low and EGFR TKI sensitive) and H1975 OR5 and H1975 OR16 (both EGFR TKI resistant and CD70 high) with increasing concentrations of the CD70 ADCs cuzatuzumab-MMAE or vorsetuzumab-MMAE. […] The inventors further observed an additive anti-tumor cell effect when osimertinib was combined with anti-CD70 ADCs. (FIG. 15).

H1975 OR5 = assay: CD70 ADC relative cell viability
Source text: as §1, §2

[4] = tested on: HCC4006 osimertinib-resistant (OR) cells; assay: Soluble CD27 stimulation of CD70, downstream signalling by Western blotting; details: FIG. 12
Experimental: FIG. 12. Stimulation of CD70 activates signal transduction pathways in EGFR TKI resistant cells. HCC4006 osimertinib-resistant (OR) cells were treated with soluble CD27, the binding partner of CD70, and the effect on downstream signal transduction pathways was evaluated by Western blotting.
Binding of CD27 to CD70 induces activation of signal transduction pathways downstream of CD70. To investigate the potential impact of CD70 signaling on EGFR TKI resistant cells, the inventors stimulated EGR TKI resistant cells with recombinant soluble CD27.

Molecule: C#Cc1cccc(Nc2ncnc3cc(OCCOC)c(OCCOC)cc23)c1 [erlotinib]
- sensitivity to EGFR TKI [1]: sensitive
- sensitivity to EGFR TKI [2]: sensitive
- sensitivity to EGFR TKI after ZEB1 expression [3]: resistant

Molecule: C=CC(=O)Nc1cc(Nc2nccc(-c3cn(C)c4ccccc34)n2)c(OC)cc1N(C)CCN(C)C [osimertinib]
- sensitivity to EGFR TKI [1]: sensitive
- sensitivity to EGFR TKI [2]: sensitive
- sensitivity to EGFR TKI after ZEB1 expression [3]: resistant

B1: vorsetuzumab-MMAE (conjugate, chains of the INN, looked up)
VH: QVQLVQSGAEVKKPGASVKVSCKASGYTFTNYGMNWVRQAPGQGLKWMGWINTYTGEPTYADAFKGRVTMTRDTSISTAYMELSRLRSDDTAVYYCARDYGDYGMDYWGQGTTVTVSS
VL: DIVMTQSPDSLAVSLGERATINCRASKSVSTSGYSFMHWYQQKPGQPPKLLIYLASNLESGVPDRFSGSGSGTDFTLTISSLQAEDVAVYYCQHSREVPWTFGQGTKVEIK
modifications: MMAE payload
- sensitivity to CD70 ADC versus H1975 parental cells (H1975 OR16): more sensitive
- anti-tumor cell activity (relative cell viability) (H1975 OR5; H1975 OR5, CD70 high, EGFR TKI resistant, FIG. 14): anti-tumor cell activity
- sensitivity to CD70 ADC versus H1975 parental cells (H1975 OR5; H1975 OR5 vs H1975 parental (CD70 low), increasing concentrations, FIG. 14 and 16): more sensitive

B2: soluble CD27: recombinant soluble CD27, the binding partner of CD70 (protein, UniProt P26842 20-191, looked up)
extracellular domain: ATPAPKSCPERHYWAQGKLCCQMCEPGTFLVKDCDQHRKAAQCDPCIPGVSFSPDHHTRPHCESCRHCNSGLLVRNCTITANAECACRNGWQCRDKECTECDPLPNPSLTARSSQALSPHPQPTHLPYVSEMLEARTAGHMQTLADFRQLPARTLSTHWPPQRSLCSSDFIR
modifications: extracellular domain
- effect on downstream signal transduction pathways [4]: phosphorylation of Akt and ERK
